We go through four compounds from patent US7871995B2, “Drug delivery system comprising a tetrahydroxylated estrogen for use in hormonal contraception” (Pantarhei Bioscience B.V., priority 2001, dated 2011).

SMILES strings stand for the structures. Read-outs that look alike come from different tables or passages of the source.

In series [1] the target is T1, human sex Hormone Binding Globulin (SHBG) (Homo sapiens, UniProt P04278).
T1 construct: Human SHBG was purified from transgenic mouse serum; made in house; host or cells: transgenic mouse (serum)
T1 sequence (P04278 30-402): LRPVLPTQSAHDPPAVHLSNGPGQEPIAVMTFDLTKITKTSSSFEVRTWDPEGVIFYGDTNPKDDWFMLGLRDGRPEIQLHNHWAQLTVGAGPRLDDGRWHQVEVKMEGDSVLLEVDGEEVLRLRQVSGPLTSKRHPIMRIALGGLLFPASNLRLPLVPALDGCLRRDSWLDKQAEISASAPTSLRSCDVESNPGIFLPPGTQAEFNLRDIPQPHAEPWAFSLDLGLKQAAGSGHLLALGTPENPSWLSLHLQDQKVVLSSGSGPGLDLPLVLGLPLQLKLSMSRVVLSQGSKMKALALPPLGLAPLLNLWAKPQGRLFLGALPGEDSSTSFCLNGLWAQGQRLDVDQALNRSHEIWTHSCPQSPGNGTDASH
Briefly: Competitive steroid-binding assay for human SHBG. The conditions noted are these: for relative binding affinity for human SHBG: rising in the order ethinylestradiol, 17β-estradiol, testosterone, 5α-dihydrotestosterone. Here is the method:
Human SHBG was treated for 30 min at room temperature with a dextran-coated charcoal (DCC) suspension in phosphate buffered saline (PBS) to remove any steroid ligand. After centrifugation (2,000×g for 10 min) to sediment the DCC, the supernatant containing the human SHBG was diluted in PBS to a concentration of 1 nM based on its steroid binding capacity.
The average amounts of [^3H]labeled ligands bound to SHBG at each concentration of competitor (B) were expressed as a percentage of the average amounts of [^3H]labeled ligands bound to SHBG in the absence of competitor (B0), and were. plotted against the concentration of competitor in each assay tube.

Series [2] relates to ovariectomized adult rats (vaginal epithelial cornification). Put plainly: Vaginal cornification bioassay in ovariectomized rats, subcutaneous dosing. It counts as in vivo, rat. The procedure:
Adult intact female CD rats were ovariectomized to induce estrogen deficiency. […] Castrate vaginal smears are indicative that complete ovariectomy was achieved. Treatment commenced following completion of the 7 days of smearing (day 0=first day of dosing). Animals were dosed, once daily for 7 consecutive days. Daily vaginal lavages continued to be obtained for 7 days after dosing was initiated in order to detect vaginal cornification, as an indication of an estrogenic response. A drop of vaginal washings was placed on a glass slide and examined by light microscopy to detect the presence or absence of cornified epithelial cells. Vaginal lavages were obtained prior to dosing on days 0-6 and prior to necropsy on day 7. The vaginal cornification bioassay was performed in order to determine the estrogenic profile of E4 when given subcutaneously (sc) to ovariectomized adult rats. E2 was used as a positive control. […] The occurrence of vaginal cornification, indicative of an estrogenic response, is an “all or none” response. Data are, therefore, expressed as the number of rats showing a vaginal estrogenic response over the number of rats (ratio) treated.

Series [3] has as its system four-day cyclic rats (ovulation). Put plainly: Antiovulatory bioassay in four-day cyclic rats, subcutaneous dosing. It is filed as in vivo, rat. The conditions noted are these: for inhibition of ovulation: EE 1.0-100 μg/kg, E2 and E4 0.1-3.0 mg/kg; for complete ovulation inhibition: twice daily sc, higher dosages. The procedure:
Vaginal smears from female rats are obtained daily for two weeks to select four-day cycling rats. Only four-day cyclic rats are to be used for the antiovulatory bioassay. […] One day after the final dose (day 5), rats are euthanized by CO2 asphyxiation at 1 pm, and the number of ova per oviduct is determined. Group means are subsequently calculated for the number of ova per ovulated rat (both oviducts). The ratio of rats ovulating for each treatment group is compared to the ratio for the vehicle-treated rats.

Series [4] can be described thus: Elimination half-life after single subcutaneous dose, plasma by HPLC-MS/MS. It counts as in vivo, rat. The conditions noted are these: single sc dose, female Sprague Dawley rats, sampling 0.5-24 hours. The procedure:
To determine the elimination half-life of estetrol (E4) after subcutaneous administration (sc), single dose studies were performed in female Sprague Dawley rats followed by frequent blood sampling over a 24 hours interval.
Female Sprague Dawley rats were equipped with a permanent silatic heart catheter, as described by Kuipers et al. (1985,Gastroenterology, 88, 403-411). Rats were allowed to recover from surgery for 5 days and were than administered 0.05, 0.5,or 5 mg/kg E4 in 0.5 ml arachidis oil. E4 was injected in the neck area using a 1 ml syringe and 20 g needle. Blood samples were subsequently collected via the heart catheter in heparinized tubes at 0.5, 1, 2, 4, 8 and 24 hours. Erythrocytes were removed by centrifugation at 5000×g for 10 minutes at 4° C. and blood plasma was stored at −20° C. […] With each sample batch, a calibration curve with 6 calibrators was recorded. The calibration curve was calculated using linear regression (correlation coefficient>0.98), which permitted quantitation of plasma concentrations. […]
Plasma E4 concentration data were analysed with “WinNonLin, edition 3.1” and involved pharmacokinetic parameters for Cmax, AUC0-24 and half-life.

For series [5], the system named is human breast cancer cells (MCF-7). The conditions noted are these: MCF-7, long term tissue culture; cited from earlier work.
For series [6] the following is noted: tritium labeled, intravenous, two adult women; cited from earlier work.
The subject of series [7] is immature rat uterus. The conditions noted are these: subcutaneous, Holinka et al., cited from earlier work.
The subject of series [8] is uterus. The conditions noted are these: continuous administration from a subcutaneous depot; Martucci et al., 1977; cited from earlier work.

Regarding `C[C@]12CCC(=O)C[C@@H]1CC[C@@H]1[C@@H]2CC[C@]2(C)[C@@H](O)CC[C@@H]12` [5α-dihydrotestosterone, reference compound], the “relative binding affinity for human SHBG” value in series [1] was “show an increased relative binding affinity for human SHBG”.
As for `C[C@]12CC[C@@H]3c4ccc(O)cc4CC[C@H]3[C@@H]1CC[C@@H]2O` [17β-estradiol], the “Number of Rats Exhibiting Estrogenic Response/Number of Rats Treated” value is given as 0/8 in series [2] (0.05 mg/kg/day sc, Day 0); 0/8 in series [2] (0.05 mg/kg/day sc, Day 1); 8/8 in series [2] (0.05 mg/kg/day sc, Day 2); 8/8 in series [2] (0.05 mg/kg/day sc, Day 3); 8/8 in series [2] (0.05 mg/kg/day sc, Day 4); 8/8 in series [2] (0.05 mg/kg/day sc, Day 5). The “Number of Rats Exhibiting Estrogenic Response/Number of Rats Treated” value in series [2] (0.05 mg/kg/day sc, Day 6) is given as 8/8; in series [2] (0.05 mg/kg/day sc, Day 7), 8/8. In addition, in series [3] (twice daily sc for 4 days), the inhibition of ovulation result is reported as “dose-dependently inhibits ovulation”. Also, in series [3], the complete ovulation inhibition result is listed as “complete ovulation inhibition is achieved”.
Turning to `C[C@]12CC[C@@H]3c4ccc(O)cc4CC[C@H]3[C@@H]1[C@@H](O)[C@@H](O)[C@@H]2O` [estetrol, 1,3,5 (10)-estratrien-3, 15α,16α,17β-tetrol], the “binding to human SHBG (competitive displacement)” value in series [1] ([3H]DHT as labeled ligand) and in series [1] ([3H]estradiol as labeled ligand) was “does not bind at all” throughout. The “binding to SHBG compared with the other estrogens tested” value in series [1] (compared with ethinylestradiol and 17β-estradiol) is reported as “negligible”. Further, the “plasma levels of unconjugated E4 over a 24 hour interval” value in series [4] is “detection of bioactive levels of unconjugated E4 at all time points”. In addition, the “Number of Rats Exhibiting Estrogenic Response/Number of Rats Treated” value was “all rats showed a vaginal estrogenic response” in series [2] (1.0 mg/kg/day sc, Day 7, listed as E4) and “all rats showed a vaginal estrogenic response” in series [2] (3.0 mg/kg/day sc, Day 7, listed as E4). The “onset of vaginal epithelial cornification” value in series [2] (sc 0.1, 0.3, 1.0 and 3.0 mg/kg/day) is listed as “dose-dependent”. Moreover, the “day of treatment on which vaginal epithelial cornification started” value in series [2] (sc 0.1, 0.3, 1.0 and 3.0 mg/kg/day, same day as observed for E2) is 2 days. Moreover, the “agonistic potency in in vitro cell proliferation, of the magnitude observed for 17β-estradiol” value in series [5] is on record as 2%. In addition, the metabolism result in series [6] is given as “virtually no metabolism except for conjugation took place”. The uterotrophic activity entry in series [7] (1979), in series [7] (1980) and in series [8] was “very weak uterotrophic activity” throughout. Further, the “antiovulatory activity compared with E2” value in series [3] (twice daily sc for 4 days) is listed as “equal potency or even more potency in inhibiting ovulation than E2”. For the same compound, in series [3] (twice daily sc for 4 days), the inhibition of ovulation result was “dose-dependently inhibits ovulation”. The complete ovulation inhibition result in series [3] is “complete ovulation inhibition is achieved”.
Turning to `C[C@]12CC[C@H]3[C@@H](CCC4=CC(=O)CC[C@@]43C)[C@@H]1CC[C@@H]2O` [testosterone, reference compound], the “relative binding affinity for human SHBG” value in series [1] is listed as “show an increased relative binding affinity for human SHBG”.
